Measurements reported in patent US20260102383A1, “LPAR1 Inhibitors” (AbbVie Inc., priority 2024, published 2026).
Where two headings read alike, the source gives them in different places. Marks after values point to notes of the source that are not given here. Values belong to the molecule of their own block, whether it stands above or below them.

Tests used:
human LPAR1 = target: T1, human LPAR1 (Homo sapiens, UniProt Q92633); test: Arrestin assay (Arrestin Reporter EDG2-bla U2OS), inhibition of LPA-stimulated signal; type: cell-based; details: TangoEDG2-bla U2OS cells expressing human LPAR1, 0.25 μM LPA
T1 construct: host or cells: TangoEDG2-bla U2OS cells
T1 sequence (Q92633 whole entry): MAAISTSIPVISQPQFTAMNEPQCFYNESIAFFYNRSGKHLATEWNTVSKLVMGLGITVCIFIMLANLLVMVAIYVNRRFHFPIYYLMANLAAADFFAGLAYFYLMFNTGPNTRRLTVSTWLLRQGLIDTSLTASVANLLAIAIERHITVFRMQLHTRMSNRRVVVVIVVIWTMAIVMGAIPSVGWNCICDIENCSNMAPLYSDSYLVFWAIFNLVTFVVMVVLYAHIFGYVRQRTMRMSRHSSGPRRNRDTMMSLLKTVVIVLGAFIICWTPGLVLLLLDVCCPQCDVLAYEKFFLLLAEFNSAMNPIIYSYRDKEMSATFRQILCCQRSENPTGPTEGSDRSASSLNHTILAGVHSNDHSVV
How it was run: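 TangoEDG2-bla U2OS cells (1×10^4/well, plated 18-20 h) were preincubated 1 h at 37 °C with compound (12-point, 3-fold, 10 μM to 0.00006 μM), then stimulated 3 h with 0.25 μM LPA final. LiveBLAzer FRET B/G 460/530 nm emission ratio gave % inhibition; IC50 from 4-parameter variable-slope fit.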

[1] = test system: disease-relevant skin proteins in bleomycin-induced skin fibrosis; test: Bleomycin-evoked skin fibrosis model, skin protein levels (ELISA, MSD U-plex); type: in vivo, C57B6J mice
Description: (§1) The activity of Compound 15 was measured using a bleomycin-evoked skin fibrosis model.
(§2) For the bleomycin model of skin fibrosis, C57B6J mice were purchased at 9 to 11 weeks of age. Upon arriving, mice were group-housed 10 per cage in individually ventilated cages, with a normal 12:12 hour light: dark cycle. Animals were acclimated to the animal facilities for a period of at least 10 days prior to initiation of bleomycin model studies; mouse ears were tagged for animal identification. At the initiation of bleomycin administration, 93M diet gel was also added to the cages of all mice and available ad libitum for the duration of the experiment. For all animals studied, food and water were available ad libitum.
(§3) The upper back region of the mouse was shaved and two circles (˜1 cm diameter) were drawn onto the skin to identify the location for bleomycin injection. To induce skin fibrosis, mice received subcutaneous injections of bleomycin (10 units/kg) or phosphate-buffered saline (PBS) during Week 1 (D0-D4) and week 2 (D7-D10) at a volume of 100 μL into the two marked injection sites (for a total volume of 200 μL). […] For pharmacological assessment, mice received either vehicle or 1×, 3×, or 10×mg/kg of a dose of Compound 15 orally, twice daily, from Day 10 to 28. On Day 28, animals were humanely euthanized, and plasma and 2 to 8 mm back skin biopsy punches collected. The ALK5 inhibitor, SB-525334 was also included in the study as a positive control. SB-525334 was administered at a dose of 4.5×mg/kg following the same dosing regimen described for Compound 15. All treatments were administered at a volume of 1×mL/kg body weight.
For protein measurement, ½ of an 8-mm biopsy punch was homogenized in 500 μL DI water containing extraction buffer and cell extraction enhancer solution, using a Bead Ruptor 24 with CryoCool (OMNI). ELISA assays were performed on the lysates to measure Fibronectin and Procollagen1a1 and a multiplexed MSD U-plex assay was performed to measure MCP-1 and CXCL1. All kits were run according to the manufacturers' instructions. Skin protein levels were normalized to total protein in the lysate and expressed per milligram of total protein.
(§4) Data from gene and protein measurements were analyzed using GraphPad Prism 7 (GraphPad Software, San Diego, CA, USA). Group comparisons were conducted by a one-way ANOVA, followed by Dunnett's multiple comparisons test.
(§5) In the subcutaneous bleomycin-induced skin fibrosis mouse model, Compound 15 was assessed after the skin fibrosis was established during Days 1 through 10. Compound 15 was administered twice daily by oral gavage from Day 10 through Day 28 as described in Table C.

[2] = test system: pro-fibrotic and pro-inflammatory genes in bleomycin-induced skin fibrosis; test: Bleomycin-evoked skin fibrosis model, skin gene expression (TaqMan); type: in vivo, C57B6J mice; details: for % Inhibition by Concentration vs Bleo (mean ± SEM), Col1a1 gene / % Inhibition by Concentration vs Bleo (mean ± SEM), Col6a3 gene / % Inhibition by Concentration vs Bleo (mean ± SEM), Col8a1 gene / % Inhibition by Concentration vs Bleo (mean ± SEM), Fn1 gene / % Inhibition by Concentration vs Bleo (mean ± SEM), Lpar1 gene / % Inhibition by Concentration vs Bleo (mean ± SEM), Mmp2 gene / % Inhibition by Concentration vs Bleo (mean ± SEM), Serpine1 gene / % Inhibition by Concentration vs Bleo (mean ± SEM), Timp1 gene: skin
Description: as §1, §2, §3
For tissue gene expression measurement, an 8-mm skin biopsy punch was homogenized in 300 μL RLT buffer containing β-mercaptoethanol (1:100) and using a QIAgen TissueLyser II. RNA was then extracted using the RNeasy Fibrous Mini Kit and purified RNA analyzed for gene expression using TaqMan Kits (Thermofisher) with indicated probes (Table B). Expression data for each sample were normalized to the housekeeping gene (Rplp0) and expressed as fold change relative to the sham treated mice.
as §4, §5

[3] = 1x mg/kg PO BID Day 10-28, vs bleomycin/vehicle
[4] = 3x mg/kg PO BID Day 10-28, vs bleomycin/vehicle
[5] = 10x mg/kg PO BID Day 10-28, vs bleomycin/vehicle
[6] = 4.5x mg/kg PO BID Day 10-28, vs bleomycin/vehicle
[7] = read-out: Arrestin Reporter EDG2-bla U2OS Human Merged IC50

Compound: Cc1cccc(-c2[nH]c(C(C)(C)C)nc2-c2ccc3nccnc3c2)n1 [SB-525334, reference compound]
% Inhibition by Drug Treatment, CXCL1 protein [1, 6]: 49* % | % Inhibition by Drug Treatment, Fibronectin protein [1, 6]: 82*** % | % Inhibition by Drug Treatment, Procollagen1a1 protein [1, 6]: 69*** % | % Inhibition by Drug Treatment, MCP-1 protein ([1]; PO BID Day 10-28, vs bleomycin/vehicle): 17%

Compound: CC(C)c1ccnn1C1(C(=O)Nc2ccc(Cl)cc2OC(F)F)CCN(C[C@@H](CN2CCOCC2)C(=O)O)CC1 [Compound 238, (2S)-2-[[4-[[4-chloro-2-(difluoromethoxy)phenyl]carbamoyl]-4-(5-isopropylpyrazol-1-yl)-1-piperidyl]methyl]-3-morpholino-propanoic acic]
IC50 (human LPAR1; [7]): 126 nM

Compound: CC(C)c1ccnn1C1(C(=O)Nc2ccc(Cl)cc2OC(F)F)CCN(C[C@@H](C(=O)O)c2cnn(C)c2)CC1 [Compound 155, (2S)-3-[4-[[4-chloro-2-(difluoromethoxy)phenyl]carbamoyl]-4-(5-isopropylpyrazol-1-yl)-1-piperidyl]-2-(1-methylpyrazol-4-yl)propanoic acid]
IC50 (human LPAR1; [7]): 125 nM

Compound: COC[C@H](CN1CCC(C(=O)Nc2ccc(Cl)cc2OC(F)F)(n2ncc3c2C(C)(C)OC3)CC1)C(=O)O [Compound 208, (2S)-2-[[4-[[4-chloro-2-(difluoromethoxy)phenyl]carbamoyl]-4-(6,6-dimethyl-4H-furo[3,4-c]pyrazol-1-yl)-1-piperidyl]methyl]-3-methoxy-propanoic acid]
IC50 (human LPAR1; [7]): 94.4 nM

Compound: CC(C)c1ccnn1C1(C(=O)Nc2ccc(Cl)cc2OC(F)F)CCN(C2CC(C(=O)O)C2)CC1 (centres unmarked) [Compound 46, 3-[4-[[4-chloro-2-(difluoromethoxy)phenyl]carbamoyl]-4-(5-isopropylpyrazol-1-yl)-1-piperidyl] cyclobutanecarboxylic acid]
IC50 (human LPAR1; [7]): 62.7 nM

Compound: COc1cccc([C@H](CN2CCC(C(=O)Nc3ccc(Cl)cc3OC(F)F)(n3nccc3C(C)C)CC2)C(=O)O)c1 (single isomer, unassigned) [Compound 32]
IC50 (human LPAR1; [7]): 3.11 nM

Compound: CC(C)c1ccnn1C1(C(=O)Nc2ccc(Cl)cc2OC(F)F)CCN(C[C@H](CC#N)C(=O)O)CC1 (single isomer, unassigned) [Compound 163]
IC50 (human LPAR1; [7]): 38.5 nM

Continued, in another order:

IC50 (human LPAR1; read-out: Arrestin Reporter EDG2-bla U2OS Human IC50): 47.8 nM
Compound: CC(C)c1ccnn1C1(C(=O)Nc2ccc(Cl)cc2OC(F)F)CCN(C[C@H](C(=O)O)C2CCOCC2)CC1 (single isomer, unassigned) [Compound 15]
% Inhibition by Drug Treatment, CXCL1 protein [1, 3]: 56** % | % Inhibition by Drug Treatment, Fibronectin protein [1, 3]: 29% | % Inhibition by Drug Treatment, MCP-1 protein [1, 3]: 50** % | % Inhibition by Drug Treatment, Procollagen1a1 protein [1, 3]: 67*** % | % Inhibition by Drug Treatment, CXCL1 protein [1, 4]: 71*** % | % Inhibition by Drug Treatment, Fibronectin protein [1, 4]: 46*** % | % Inhibition by Drug Treatment, MCP-1 protein [1, 4]: 59** % | % Inhibition by Drug Treatment, Procollagen1a1 protein [1, 4]: 74*** % | % Inhibition by Drug Treatment, CXCL1 protein [1, 5]: 76*** % | % Inhibition by Drug Treatment, Fibronectin protein [1, 5]: 46*** % | % Inhibition by Drug Treatment, MCP-1 protein [1, 5]: 73*** % | % Inhibition by Drug Treatment, Procollagen1a1 protein [1, 5]: 77*** % | key measures of skin inflammation and fibrosis ([2]; mice, 1×, 3×, and 10×mg/kg): significantly reduced | % Inhibition by Concentration vs Bleo (mean ± SEM), Col1a1 gene ([2]; 1x mg/kg PO BID Day 10-28): 58 ± 12 % | % Inhibition by Concentration vs Bleo (mean ± SEM), Col6a3 gene ([2]; 1x mg/kg PO BID Day 10-28): 62 ± 24% | % Inhibition by Concentration vs Bleo (mean ± SEM), Col8a1 gene ([2]; 1x mg/kg PO BID Day 10-28): 16 ± 23% | % Inhibition by Concentration vs Bleo (mean ± SEM), Fn1 gene ([2]; 1x mg/kg PO BID Day 10-28): 31 ± 20% | % Inhibition by Concentration vs Bleo (mean ± SEM), Lpar1 gene ([2]; 1x mg/kg PO BID Day 10-28): 54 ± 24% | % Inhibition by Concentration vs Bleo (mean ± SEM), Mmp2 gene ([2]; 1x mg/kg PO BID Day 10-28): 39 ± 26% | % Inhibition by Concentration vs Bleo (mean ± SEM), Serpine1 gene ([2]; 1x mg/kg PO BID Day 10-28): 28 ± 31% | % Inhibition by Concentration vs Bleo (mean ± SEM), Timp1 gene ([2]; 1x mg/kg PO BID Day 10-28): 34 ± 21% | % Inhibition by Concentration vs Bleo (mean ± SEM), Col1a1 gene ([2]; 3x mg/kg PO BID Day 10-28): 77 ± 8 % | % Inhibition by Concentration vs Bleo (mean ± SEM), Col6a3 gene ([2]; 3x mg/kg PO BID Day 10-28): 108 ± 9 % | % Inhibition by Concentration vs Bleo (mean ± SEM), Col8a1 gene ([2]; 3x mg/kg PO BID Day 10-28): 43 ± 14% | % Inhibition by Concentration vs Bleo (mean ± SEM), Fn1 gene ([2]; 3x mg/kg PO BID Day 10-28): 76 ± 5 % | % Inhibition by Concentration vs Bleo (mean ± SEM), Lpar1 gene ([2]; 3x mg/kg PO BID Day 10-28): 97 ± 9 % | % Inhibition by Concentration vs Bleo (mean ± SEM), Mmp2 gene ([2]; 3x mg/kg PO BID Day 10-28): 81 ± 15 % | % Inhibition by Concentration vs Bleo (mean ± SEM), Serpine1 gene ([2]; 3x mg/kg PO BID Day 10-28): 88 ± 5 % | % Inhibition by Concentration vs Bleo (mean ± SEM), Timp1 gene ([2]; 3x mg/kg PO BID Day 10-28): 81 ± 7 % | % Inhibition by Concentration vs Bleo (mean ± SEM), Col1a1 gene ([2]; 10x mg/kg PO BID Day 10-28): 88 ± 6 % | % Inhibition by Concentration vs Bleo (mean ± SEM), Col6a3 gene ([2]; 10x mg/kg PO BID Day 10-28): 117 ± 8 % | % Inhibition by Concentration vs Bleo (mean ± SEM), Col8a1 gene ([2]; 10x mg/kg PO BID Day 10-28): 55 ± 11 % | % Inhibition by Concentration vs Bleo (mean ± SEM), Fn1 gene ([2]; 10x mg/kg PO BID Day 10-28): 75 ± 4 % | % Inhibition by Concentration vs Bleo (mean ± SEM), Lpar1 gene ([2]; 10x mg/kg PO BID Day 10-28): 95 ± 8 % | % Inhibition by Concentration vs Bleo (mean ± SEM), Mmp2 gene ([2]; 10x mg/kg PO BID Day 10-28): 55 ± 12% | % Inhibition by Concentration vs Bleo (mean ± SEM), Serpine1 gene ([2]; 10x mg/kg PO BID Day 10-28): 75 ± 9 % | % Inhibition by Concentration vs Bleo (mean ± SEM), Timp1 gene ([2]; 10x mg/kg PO BID Day 10-28): 84 ± 5 %

IC50 (human LPAR1; [7]): 13 nM
Compound: CC(C)c1ccnn1C1(C(=O)Nc2ccc(Cl)cc2OC(F)F)CCN(C[C@]2(C(=O)O)CCCCO2)CC1 (single isomer, unassigned) [Compound 39, (2.5)-2-[[4-[[4-chloro-2-(difluoromethoxy)phenyl]carbamoyl]-4-(5-isopropylpyrazol-1-yl)-1-piperidyl]methyl]tetrahydropyran-2-carboxylic acid]

IC50 (human LPAR1; [7]): 32.7 nM
Compound: CC(C)C(=O)N1CCC(CN2CCC(C(=O)Nc3ccc(Cl)cc3OC(F)F)(n3nccc3C(C)C)CC2)(C(=O)O)CC1 [Compound 75, 4-[[4-[[4-chloro-2-(difluoromethoxy)phenyl]carbamoyl]-4-(5-isopropylpyrazol-1-yl)-1-piperidyl]methyl]-1-(2-methylpropanoyl)piperidine-4-carboxylic acid]

IC50 (human LPAR1; [7]): 48.8 nM
Compound: CC(C)c1ccnn1C1(C(=O)Nc2ccc(Cl)cc2OC(F)F)CCN(CC2(C(=O)O)C[C@@H](C)O[C@@H](C)C2)CC1 (stereo partly drawn) [Compound 180, (2R,6S)-4-[[4-[[4-chloro-2-(difluoromethoxy)phenyl]carbamoyl]-4-(5-isopropylpyrazol-1-yl)-1-piperidyl]methyl]-2,6-dimethyl-tetrahydropyran-4-carboxylic acid]

IC50 (human LPAR1; [7]): 51.8 nM
Compound: CC(C)c1c(F)cnn1C1(C(=O)Nc2ccc(Cl)cc2OC(F)F)CCN(C[C@]2(C(=O)O)CC[C@@H](O)CC2)CC1 [Compound 162, (1s,4s)-1-[[4-[[4-chloro-2-(difluoromethoxy)phenyl]carbamoyl]-4-(4-fluoro-5-isopropyl-pyrazol-1-yl)-1-piperidyl]methyl]-4-hydroxy-cyclohexanecarboxylic acid]

IC50 (human LPAR1; [7]): 23 nM
Compound: CC1CCc2cnn(C3(C(=O)Nc4ccc(Cl)cc4OC(F)F)CCN(CC4(C(=O)O)CCOCC4)CC3)c21 (centres unmarked) [Compound 91, 4-[[4-[[4-chloro-2-(difluoromethoxy)phenyl]carbamoyl]-4-(6-methyl-5,6-dihydro-4H-cyclopenta[e]pyrazol-1-yl)-1-piperidyl]methy] tetrahydropyran-4-carboxylic acid]
